Laboratory results from patent US20050059726A1, “Pyrrolidine-2-ones as factor xa inhibitors” (priority 2001, published 2005).

Molecular target: human Factor Xa (Homo sapiens, UniProt P00742)
Experiment: In vitro assay for inhibition of Factor Xa (2), fluorogenic assay
Assay type: biochemical
Details: substrate Rhodamine 110, bis-(CBZ-glycylglycyl-L-arginine amide 10 μM), Ki calculated from IC50
Summary of the method: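 Enzyme (final 0.0003 U/mL) preincubated 15 min with compound at room temperature in 50 mM Tris-HCl, 150 mM NaCl, 5 mM CaCl2, pH 7.4, then rhodamine 110 bis-(CBZ-Gly-Gly-Arg amide) substrate added (final 10 μM).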

Sequence of human Factor Xa (P00742 235-488 limits assumed): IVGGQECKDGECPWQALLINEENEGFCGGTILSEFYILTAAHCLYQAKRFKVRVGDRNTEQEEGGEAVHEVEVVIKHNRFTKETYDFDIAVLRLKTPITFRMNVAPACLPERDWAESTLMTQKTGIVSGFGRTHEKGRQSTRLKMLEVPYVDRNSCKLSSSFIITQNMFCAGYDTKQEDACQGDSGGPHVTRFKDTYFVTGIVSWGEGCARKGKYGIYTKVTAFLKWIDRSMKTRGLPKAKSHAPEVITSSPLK
Sequence of human Factor Xa (P00742 41-179 partner limits assumed): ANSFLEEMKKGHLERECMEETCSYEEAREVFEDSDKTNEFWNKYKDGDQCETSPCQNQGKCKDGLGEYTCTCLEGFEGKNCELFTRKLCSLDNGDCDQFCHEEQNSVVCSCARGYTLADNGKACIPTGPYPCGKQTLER

SMILES	Ki
O=C1[C@@H](NS(=O)(=O)c2ccc(-c3ccc(Cl)s3)s2)CCN1c1ccc([N+](=O)[O-])cc1F [Example 96, 5′-Chloro-N-[(3S)-1-(2-fluoro-4-nitrophenyl)-2-oxopyrrolidin-3-yl]-2,2′-bithiophene-5-sulfonamide]	< 0.02 µM
N#Cc1ccc(N2CC[C@H](NS(=O)(=O)c3cc4ccc(Cl)cc4s3)C2=O)c(F)c1 [Example 97, 6-Chloro-N-[(3S)-1-(4-cyano-2-fluorophenyl)-2-oxopyrrolidin-3-yl]-1-benzothiophene-2-sulfonamide]	< 0.01 µM
O=C1[C@@H](NS(=O)(=O)c2ccc3cc(Cl)ccc3c2)CCN1c1ccccc1F [Example 101, 6-Chloro-N-[(3S)-1-(2-fluorophenyl)-2-oxopyrrolidin-3-yl]naphthalene-2-sulfonamide]	< 1 µM
O=C1[C@@H](NS(=O)(=O)c2ccc3cc(Cl)ccc3c2)CCN1c1ccc(N2CCOCC2)c(F)c1 [Example 103, 6-Chloro-N-{(3S)-1-[3-fluoro-4-(4-morpholinyl)phenyl]-2-oxopyrrolidinyl}-2-naphthalenesulfonamide]	< 1 µM
NC(=O)c1ccc(N2CC[C@H](NS(=O)(=O)/C=C/c3ccc(Cl)s3)C2=O)nc1 [Example 106, 6-[(3S)-3-({[(E)-2-(5-Chlorothien-2-yl)ethenyl]sulfonyl}amino)-2-oxopyrrolidin-1-yl]nicotinamide]	< 0.2 µM
CN(C)C(=O)c1ccc(N2CC[C@H](NS(=O)(=O)c3cc4ccc(Cl)cc4s3)C2=O)c(F)c1 [Example 109, 4-((3S)-3-{[(6-Chloro-1-benzothien-2-yl)sulfonyl]amino}-2-oxopyrrolidin-1-yl)-3-fluoro-N,N-dimethylbenzamide]	< 0.01 µM
CC(C)N(C)C(=O)c1ccc(N2CC[C@H](NS(=O)(=O)c3cc4ccc(Cl)cc4s3)C2=O)c(F)c1 [Example 111, 4-((3S)-3-{[(6-Chloro-1-benzothien-2-yl)sulfonyl]amino}-2-oxopyrrolidin-1-yl)-3-fluoro-N-isopropyl-N-methylbenzamide]	< 1 µM
CC(=O)c1ccc(N2CC[C@H](NS(=O)(=O)/C=C/c3ccc(Cl)s3)C2=O)nc1 [Example 113, (E)-N-[(3S)-1-(5-Acetylpyridin-2-yl)-2-oxopyrrolidin-3yl]-2-(5-chlorothien-2-yl)ethenesulfonamide]	< 0.2 µM
CC(C)N(C=O)c1ccc(N2CC[C@H](NS(=O)(=O)c3cc4ccc(Cl)cc4s3)C2=O)c(F)c1 [Example 121, 6-Chloro-N-((3S)-1-{2-fluoro-4-[formyl(isopropyl)amino]phenyl}-2-oxopyrrolidin-3-yl)-1-benzothiophene-2-sulfonamide]	< 0.02 µM
O=C1[C@@H](NS(=O)(=O)c2ccc3cc(Cl)ccc3c2)CCN1c1ccc(-n2ccnc2)cc1F [Example 122, 6-Chloro-N-{(3S)-1-[2-fluoro-4-(1H-imidazol-1-yl)phenyl]-2-oxopyrrolidin-3-yl}naphthalene-2-sulfonamide]	< 0.01 µM
Cc1cn(-c2ccc(N3CC[C@H](NS(=O)(=O)c4ccc5cc(Cl)ccc5c4)C3=O)c(F)c2)cn1 [Example 128, 6-Chloro-N-{(3S)-1-[2-fluoro-4-(4-methyl-1H-imidazol-1-yl)phenyl]-2-oxopyrrolidinyl}-2-naphthalenesulfonamide]	< 0.01 µM
O=C1[C@@H](NS(=O)(=O)c2ccc3cc(Cl)ccc3c2)CCN1c1ccc(-n2cccn2)cc1F [Example 129, 6-Chloro-N-{(3S)-1-[2-fluoro-4-(1H-pyrazol-1-yl)phenyl]-2-oxopyrrolidinyl}-2-naphthalenesulfonamide]	< 0.01 µM
O=C1[C@@H](NS(=O)(=O)CCc2ccc(Cl)s2)CCN1c1ccc(I)cn1 [Example 132, 2-(5-Chlorothien-2-yl)-N-[(3S)-1-(5-iodopyridin-2-yl)-2-oxopyrrolidin-3-yl]ethane-1-sulfonamide]	< 0.02 µM
NC(=O)CN([C@H]1CCN(c2ccc(C(N)=O)cc2F)C1=O)S(=O)(=O)/C=C/c1ccc(Cl)s1 [Example 133, 4-[(3S)-3-((2-Amino-2-oxoethyl){[(E)-2-(5-chlorothien-2-yl)ethenyl]sulfonyl}amino)-2-oxopyrrolidin-1yl]-3-fluorobenzamide]	< 0.01 µM
CN(C)C(=O)c1ccc(N2CC[C@H](N(CC(N)=O)S(=O)(=O)/C=C/c3ccc(Cl)s3)C2=O)c(F)c1 [Example 134, 4-[(3S)-3-((2-Amino-2-oxoethyl){[(E)-2-(5-chlorothien-2-yl)ethenyl]sulfonyl}amino)-2-oxopyrrolidin-1-yl]-3-fluoro-N,N-dimethylbenzamide]	< 0.01 µM
CC(=O)c1ccc(N2CC[C@H](NS(=O)(=O)/C=C/c3ccc(Cl)s3)C2=O)cc1 [Example 138, (E)-N-[(3S)-1-(4-Acetylphenyl)-2-oxopyrrolidin-3-yl]-2-(5-chlorothien-2-yl)ethenesulfonamide]	< 0.2 µM

More lines, now with the values ahead:

Ki	SMILES
< 0.2 µM	N#Cc1ccc(N2CC[C@H](NS(=O)(=O)/C=C/c3ccc(Cl)s3)C2=O)c(F)c1 [Example 98, (E)-2-(5-Chlorothien-2-yl)-N-[(3S)-1-(4-cyano-2-fluorophenyl)-2-oxopyrrolidin-3-yl]ethenesulfonamide]
< 0.2 µM	N#Cc1ccc(N2CC[C@H](NS(=O)(=O)CCc3ccc(Cl)s3)C2=O)c(F)c1 [Example 99, 2-(5-Chlorothien-2-yl)-N-[(3S)-1-(4-cyano-2-fluorophenyl)-2-oxopyrrolidin-3-yl]ethanesulfonamide]
< 0.01 µM	C/C(=C\S(=O)(=O)N[C@H]1CCN(c2ccc(C(=O)N(C)C)cc2F)C1=O)c1ccc(Cl)s1 [Example 110, 4-[(3S)-3({[(1E)-2-(5-Chlorothien-2-yl)prop-1-enyl]sulfonyl}amino)-2-oxopyrrolidin-1-yl]-3-fluoro-N,N-dimethylbenzamide]
< 1 µM	CC(=O)Nc1ccc(N2CC[C@H](NS(=O)(=O)c3cc4ccc(Cl)cc4s3)C2=O)c(F)c1 [Example 117, N-[4-((3S)-3-{[(6-Chloro-1-benzothien-2-yl)sulfonyl]amino}-2-oxopyrrolidinyl)-3-fluorophenyl]acetamide]
< 1 µM	CCC(=O)Nc1ccc(N2CC[C@H](NS(=O)(=O)c3cc4ccc(Cl)cc4s3)C2=O)c(F)c1 [Example 118, N-[4-((3S)-3-{[(6-Chloro-1-benzothien-2-yl)sulfonyl]amino}-2-oxopyrrolidinyl)-3-fluorophenyl]propanamide]
< 0.01 µM	CC(C)N(C=O)c1ccc(N2CC[C@H](NS(=O)(=O)/C=C/c3ccc(Cl)s3)C2=O)c(F)c1 [Example 120, (E)-2-(5-Chlorothien-2-yl)-N-((3S)-1-{2-fluoro-4-[formyl(isopropyl)amino]phenyl}-2-oxopyrrolidin-3-yl)ethenesulfonamide]
< 0.2 µM	CC(O)c1ccc(N2CC[C@H](NS(=O)(=O)/C=C/c3ccc(Cl)s3)C2=O)c(F)c1 (stereo partly drawn) [Example 135, (E)-2-(5-Chlorothien-2-yl)-N-{(3S)-1-[2-fluoro-4-(1-hydroxyethyl)phenyl]-2-oxopyrrolidin-3-yl}ethenesulfonamide]
< 0.01 µM	C/C(=C\S(=O)(=O)N[C@H]1CCN(c2ccc(I)cn2)C1=O)c1ccc(Cl)s1 [Example 136]
< 0.02 µM	C/C(=C\S(=O)(=O)N[C@H]1CCN(c2ccc(NS(C)(=O)=O)cc2F)C1=O)c1ccc(Cl)s1 [Example 137, (1E)-2-(5-Chlorothien-2-yl)-N-((3S)-1-{2-fluoro-4-[(methylsulfonyl)amino]phenyl}-2-oxopyrrolidin-3-yl)prop-1-ene-1-sulfonamide]
